Results taken from patent US20230055237A1, “COMPOUNDS AND METHODS FOR THE TREATMENT OF CYSTIC FIBROSIS” (Flatley Discovery Lab, LLC, priority 2019, published 2023).

Target: T1, CFTR (Homo sapiens, UniProt P13569, DEL508-508)
T1 construct: Primary CF airway epithelial cells were obtained from the UNC Cystic Fibrosis Tissue Procurement and Cell Culture Core; host or cells: primary CF airway epithelial cells, differentiated at the air-liquid interface
Assay: Equivalent current assay in primary CF airway epithelial cells (NAUC, combination with 1st site corrector FDL169 or VX-809)
Type: cell-based
Conditions: 37° C., 24 h
Description: Primary CF airway epithelial cells were obtained from the UNC Cystic Fibrosis Tissue Procurement and Cell Culture Core. The cells are grown at 37° C. in a Heracell 150i incubator using growth media (BEGM, Fischer). […] Two days before the Ussing assay the mucus on the apical surface of the cells was aspirated after incubating with 200 μL of differentiation media for at least thirty (30) minutes. One day before the Ussing assay test compounds were added to the basolateral surface of the cells at various test concentrations dissolved in DMSO. Duplicate wells were prepared giving a n=3 or n=4 protocol.
Cells were treated for 24 hours with various combinations and concentrations of the test articles, reference standard (3 μM VX809 or 3 μM FDL169, positive control). Compounds stock solutions were prepared in DMSO and diluted 1/1000 into ALI media to their final assay concentration. Cells were treated with combination solutions (2 mL of each dilution) and incubated at 37° C. for 24 h.
For the equivalent current assay, cells on four Transwell (24-well) plates were treated. Each Transwell plate was filled with 200 μl of HBS on the apical surface and 2 ml on the basolateral surface. Plates were placed horizontally in a heated mount at 37° C., and equilibrated for several minutes. Resting current was measured for 15 min and then blocked by the apical addition of 5 μM benzamil. After 20 min, 10 μM forskolin and 1 μM VX770 were added to both the apical and basolateral side to stimulate CFTR. An increase in chloride current is seen as an upward deflection of the trace.
The raw data, current vs. time for the Ussing chamber (sampling interval: 10 s) and voltage vs. time and resistance vs. time for the equivalent current assay (sampling interval: 5 minutes) were transferred to Excel (Microsoft Office Professional, version 14.0.7106.5003) for analysis. […] This average is equivalent to the sum of the average forskolin activated and the average VX770-potentiated currents. The average current measured in vehicle (0.1% DMSO) treated cells, Iv, was subtracted from the current for the test article, ITA, or from the corrector reference standard VX809 (3 uM ISTD). For replicate measurements, the average vehicle subtracted response for the test article, was normalized to the average vehicle subtracted inhibitor response of the reference corrector VX809 (3 μM).
A second endpoint, for the equivalent current assay, evaluated was NAUC, the normalized area under the curve (AUC) measuring the response after addition of forskolin and VX770 to the time point right before the addition of the CFTR inhibitor. The AUC is effectively the average response multiplied by the duration of the response.
NAUCTA=[AUCTA−AUCV,ave]/[AUCVx809r,ave−AUCV,ave] (Equation 2).
Experiments were run with a minimum of n=4 replicates per concentration. Since the distribution for the ratio of two normal distributions is a Cauchy distribution, the median value must be used for the average and the average deviation must be used for the error of all normalized data.
E=Emin+(Emax−Emin)/(1+10^((LogEC5OS)*nH)) (Equation 3)

[1] = test compound 1 μM in combination with 1st site corrector FDL169 (3 μM)
[2] = test compound 3 μM in combination with 1st site corrector FDL169 (3 μM)
[3] = test compound 10 μM in combination with 1st site corrector FDL169 (3 μM)
[4] = test compound 1 μM in combination with 1st site corrector VX-809 (3 μM)
[5] = test compound 3 μM in combination with 1st site corrector VX-809 (3 μM)
[6] = test compound 10 μM in combination with 1st site corrector VX-809 (3 μM)

T1 sequence (P13569 with tags, fused parts or gaps DEL508-508): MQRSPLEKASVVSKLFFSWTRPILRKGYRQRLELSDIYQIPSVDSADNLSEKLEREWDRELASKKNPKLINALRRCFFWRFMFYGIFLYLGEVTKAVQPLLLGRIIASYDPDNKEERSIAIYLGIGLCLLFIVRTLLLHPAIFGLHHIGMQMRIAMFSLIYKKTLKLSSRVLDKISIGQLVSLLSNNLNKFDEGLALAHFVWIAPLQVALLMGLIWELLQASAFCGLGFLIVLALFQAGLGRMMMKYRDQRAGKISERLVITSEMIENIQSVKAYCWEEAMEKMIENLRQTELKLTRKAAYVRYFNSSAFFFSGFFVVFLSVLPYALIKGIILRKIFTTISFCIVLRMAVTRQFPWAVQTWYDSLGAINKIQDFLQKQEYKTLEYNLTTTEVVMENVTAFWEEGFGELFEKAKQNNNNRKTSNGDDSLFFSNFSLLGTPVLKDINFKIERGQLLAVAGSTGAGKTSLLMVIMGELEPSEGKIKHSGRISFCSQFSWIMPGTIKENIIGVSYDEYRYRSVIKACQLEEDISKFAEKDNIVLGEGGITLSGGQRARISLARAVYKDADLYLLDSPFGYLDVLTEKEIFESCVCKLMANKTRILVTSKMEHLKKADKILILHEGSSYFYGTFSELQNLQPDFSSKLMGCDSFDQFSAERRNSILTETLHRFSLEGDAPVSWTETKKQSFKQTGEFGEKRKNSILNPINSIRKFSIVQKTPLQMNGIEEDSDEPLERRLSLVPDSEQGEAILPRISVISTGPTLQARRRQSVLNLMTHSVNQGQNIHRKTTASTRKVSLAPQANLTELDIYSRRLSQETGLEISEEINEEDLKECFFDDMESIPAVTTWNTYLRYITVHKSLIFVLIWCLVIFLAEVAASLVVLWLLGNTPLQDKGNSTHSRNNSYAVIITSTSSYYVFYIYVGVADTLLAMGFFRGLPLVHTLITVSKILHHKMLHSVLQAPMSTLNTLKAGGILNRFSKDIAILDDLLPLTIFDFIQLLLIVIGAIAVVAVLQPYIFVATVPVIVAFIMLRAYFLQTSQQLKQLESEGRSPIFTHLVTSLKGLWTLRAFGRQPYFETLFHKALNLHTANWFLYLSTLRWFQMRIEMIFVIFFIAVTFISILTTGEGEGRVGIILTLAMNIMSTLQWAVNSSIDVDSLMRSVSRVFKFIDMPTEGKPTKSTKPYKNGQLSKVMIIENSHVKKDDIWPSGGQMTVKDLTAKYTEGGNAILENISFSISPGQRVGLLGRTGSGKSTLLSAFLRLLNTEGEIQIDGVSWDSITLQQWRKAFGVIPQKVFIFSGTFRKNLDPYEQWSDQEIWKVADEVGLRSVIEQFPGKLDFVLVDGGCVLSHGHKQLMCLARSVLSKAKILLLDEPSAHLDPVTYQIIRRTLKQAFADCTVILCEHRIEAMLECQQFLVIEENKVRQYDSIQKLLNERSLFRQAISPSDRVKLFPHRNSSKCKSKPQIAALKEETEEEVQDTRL

| SMILES | Nauc @ 1 μM [1] | Nauc @ 3 μM [2] | Nauc @ 10 μM [3] | Nauc @ 1 μM [4] | Nauc @ 3 μM [5] | Nauc @ 10 μM [6] |
| --- | --- | --- | --- | --- | --- | --- |
| CCN(C(=O)[C@H]1[C@H]2CC(F)(F)CN2[C@]2(C(=O)Nc3c(Cl)cc(Cl)cc32)[C@H]1C(=O)O)c1cc(Cl)cc(Cl)c1 [Example 171] | +++ (NAUC “+++” refers to an observed NAUC>170% of positive control) | +++ (NAUC “+++” refers to an observed NAUC>170% of positive control) | +++ (NAUC “+++” refers to an observed NAUC>170% of positive control) | – | – | – |
| O=C(Nc1cccc2nccnc12)[C@H]1[C@H]2CC(F)(F)CN2[C@]2(C(=O)Nc3c(Cl)cc(Cl)cc32)[C@H]1C(=O)O [Example 126] | – | – | – | ++ (NAUC “++” refers to an observed NAUC 170-140% of positive control) | ++ (NAUC “++” refers to an observed NAUC 170-140% of positive control) | – |
| O=C(Nc1cc(Cl)cc(Cl)c1)C1C(C(F)(F)c2ccccc2)NC2(C(=O)Nc3c(Cl)cc(Cl)cc32)C1C(=O)O (stereo not drawn) [Example 39] | – | – | – | – | +++ (NAUC “+++” refers to an observed NAUC>170% of positive control) | +++ (NAUC “+++” refers to an observed NAUC>170% of positive control) |
| O=C(Nc1cc(C(F)(F)F)cc(C(F)(F)F)n1)C1C2CC3(CC3)CN2C2(C(=O)Nc3c(Cl)cc(Cl)cc32)C1C(=O)O (stereo not drawn) [Example 1] | – | – | – | – | +++ (NAUC “+++” refers to an observed NAUC>170% of positive control) | +++ (NAUC “+++” refers to an observed NAUC>170% of positive control) |
| O=C(O)[C@H]1[C@@H](C(=O)N(CC2CCCCCC2)c2cc(Cl)cc(Cl)c2)[C@H]2CC(F)(F)CN2[C@]12C(=O)Nc1c(Cl)cc(Cl)cc12 [Example 178] | +++ (NAUC “+++” refers to an observed NAUC>170% of positive control) | +++ (NAUC “+++” refers to an observed NAUC>170% of positive control) | ++ (NAUC “++” refers to an observed NAUC 170-140% of positive control) | – | – | – |
| O=C(Nc1cc(Cl)cc(Cl)c1)C1C2CC(F)(F)CN2C2(C(=O)Nc3c(Cl)cc(Cl)cc32)C1C(=O)NO (single isomer, unassigned) [Example 226a, 5,7-dichloro-N1′-(3,5-dichlorophenyl)-6′,6′-difluoro-N2′-hydroxy-2-oxo-1′,2′,5′,6′,7′,7a′-hexahydrospiro[indoline-3,3′-pyrrolizine]-1′,2′-dicarboxamide] | – | – | – | ++ (NAUC “++” refers to an observed NAUC 170-140% of positive control) | ++ (NAUC “++” refers to an observed NAUC 170-140% of positive control) | +++ (NAUC “+++” refers to an observed NAUC>170% of positive control) |
| O=C(Nc1cc(Cl)cc(Cl)c1)C1C2CCCN2C2(C(=O)Nc3c(Cl)cc(Cl)cc32)C1C(=O)NO (single isomer, unassigned) [Example 234b, 5,7-dichloro-N1′-(3,5-dichlorophenyl)-N2′-hydroxy-2-oxo-1′,2′,5′,6′,7′,7a′-hexahydrospiro[indoline-3,3′-pyrrolizine]-1,2′-dicarboxamide] | – | – | – | + (NAUC “+” refers to an observed NAUC <140% of positive control) | ++ (NAUC “++” refers to an observed NAUC 170-140% of positive control) | +++ (NAUC “+++” refers to an observed NAUC>170% of positive control) |
| Cc1oc(=O)oc1COC(=O)[C@H]1[C@@H](C(=O)N(C)c2cc(Cl)cc(Cl)c2)[C@H]2CC(F)(F)CN2C12C(=O)N(Cc1oc(=O)oc1C)c1c(Cl)cc(Cl)cc12 (mixture of isomers) [Example 250.3b, rac-(5-methyl-2-oxo-1,3-dioxo1-4-yl)methyl (1′R,2′S,3R,7a′R)-5,7-dichloro-1′-((3,5-dichlorophenyl)(methyl)carbamoyl)-6′,6′-difluoro-1-45-methyl-2-oxo-1,3-dioxol-4-yl)methyl)-2-oxo-1′,2′,5′,6′,7′,7a′-hexahydrospiro[indoline-3,3′-pyrrolizine]-2′-carboxylate] | – | – | – | – | – | + (NAUC “+” refers to an observed NAUC <140% of positive control) |
| O=C(Nc1cc(Cl)cc(Cl)c1)C1C(C(F)(F)F)NC2(C(=O)Nc3c(Cl)cc(Cl)cc32)C1C(=O)O (stereo not drawn) [Example 40] | – | – | – | – | +++ (NAUC “+++” refers to an observed NAUC>170% of positive control) | +++ (NAUC “+++” refers to an observed NAUC>170% of positive control) |
| O=C(Nc1cc(Cl)cc(Cl)c1F)C1C2CCCN2C2(C(=O)Nc3c(Cl)cc(Cl)cc32)C1C(=O)O (stereo not drawn) [Example 37] | – | – | – | – | +++ (NAUC “+++” refers to an observed NAUC>170% of positive control) | +++ (NAUC “+++” refers to an observed NAUC>170% of positive control) |
| O=C(Nc1cc(Cl)cc(Cl)c1)C1C2CC(F)(F)CN2C2(C(=O)Nc3c(Cl)cc(Cl)cc32)C1C(=O)NO (single isomer, unassigned) [Example 226b, 5,7-dichloro-N1′-(3,5-dichlorophenyl)-6′,6′-difluoro-N2′-hydroxy-2-oxo-1′,2′,5′,6′,7′,7a′-hexahydrospiro[indoline-3,3′-pyrrolizine]-1′,2′-dicarboxamide] | – | – | – | + (NAUC “+” refers to an observed NAUC <140% of positive control) | +++ (NAUC “+++” refers to an observed NAUC>170% of positive control) | +++ (NAUC “+++” refers to an observed NAUC>170% of positive control) |
| Cn1ccc2ccc(NC(=O)[C@H]3[C@H]4CC(F)(F)CN4[C@]4(C(=O)Nc5c(Cl)cc(Cl)cc54)[C@H]3C(=O)O)cc21 [Example 136] | + (NAUC “+” refers to an observed NAUC <140% of positive control) | + (NAUC “+” refers to an observed NAUC <140% of positive control) | – | – | – | – |
| CN(O)C(=O)C1C(C(=O)Nc2cc(Cl)cc(Cl)c2)C2CCCN2C12C(=O)Nc1c(Cl)cc(Cl)cc12 (single isomer, unassigned) [Example 235b, 5,7-dichloro-N1′-(3,5-dichlorophenyl)-N2′-hydroxy-N2′-methyl-2-oxo-1′,2′,5′,6′,7′,7a′-hexahydrospiro[indoline-3,3′-pyrrolizine]-1′,2′-dicarboxamide] | – | – | – | +++ (NAUC “+++” refers to an observed NAUC>170% of positive control) | +++ (NAUC “+++” refers to an observed NAUC>170% of positive control) | +++ (NAUC “+++” refers to an observed NAUC>170% of positive control) |
| COc1c(Cl)cc(NC(=O)C2C3CC(F)(F)CN3C3(C(=O)Nc4c(Cl)cc(Cl)cc43)C2C(=O)O)cc1Cl (stereo not drawn) [Example 9] | – | – | – | – | +++ (NAUC “+++” refers to an observed NAUC>170% of positive control) | +++ (NAUC “+++” refers to an observed NAUC>170% of positive control) |
| O=C(Nc1cc(Cl)c(OC(F)F)c(Cl)c1)C1C2CCCN2C2(C(=O)Nc3c(Cl)cc(Cl)cc32)C1C(=O)O (stereo not drawn) [Example 19] | – | – | – | – | ++ (NAUC “++” refers to an observed NAUC 170-140% of positive control) | +++ (NAUC “+++” refers to an observed NAUC>170% of positive control) |
| CN(C(=O)[C@H]1[C@H]2CC(F)(F)CN2C2(C(=O)Nc3c(Cl)cc(Cl)cc32)[C@H]1C(=O)NS(=O)(=O)c1ccccc1)c1cc(Cl)cc(Cl)c1 (mixture of isomers) [Example 230, rel-(1′R,2′S,3R,7a′R)-5,7-dichloro-N1′-(3,5-dichlorophenyl)-6′,6′-difluoro-N1′-methyl-2-oxo-N2′-(phenylsulfonyl)-1′,2′,5′,6′,7′,7a′-hexahydrospiro[indoline-3,3′-pyrrolizine]-1′,2′-dicarboxamide] | – | – | – | – | – | + (NAUC “+” refers to an observed NAUC <140% of positive control) |
